Measurements as given in PubChem BioAssay AID504765 (Sanford-Burnham Center for Chemical Genomics, 2011).
Active and inactive are the calls of the source. No rule for the calls is given here.

Target: glucose-6-phosphate dehydrogenase-6-phosphogluconolactonase (Plasmodium falciparum 3D7)
Assay: PfG6PD inhibitor potency, dose response, biochemical, fluorescence intensity (AID 504765)
Details: Recombinant PfG6PD enzyme, fluorescence intensity (NADPH)

| SMILES | IC50 |
| --- | --- |
| Cc1cccc(C2(c3cccc(C)c3)CC2C(=O)Nc2ccc([N+](=O)[O-])cc2O)c1 (centres undefined) | 13.2 µM |
| CCN(CC)C(=S)SSC(=S)N(CC)CC | 10.1 µM |
| O=C(CCC(=O)OCC(=O)c1ccc([N+](=O)[O-])cc1)Nc1ccccc1Cl | 6.61 µM |
| Cc1cccc(C(=O)Nc2nnc(S(=O)(=O)N3CCOCC3)s2)c1 | 7.44 µM |
| C[C@H](CO)N1C[C@H](C)[C@@H](CN(C)C(=O)Nc2ccc(C(F)(F)F)cc2)Oc2c(cccc2N(C)C)C1=O | 5.05 µM |
| CCNc1ccccc1CP(=O)(c1ccccc1)c1ccccc1O (centres undefined) | 6.81 µM |
| N#CC1=C(N)Oc2c(O)cc3ccccc3c2C1c1ccsc1 (centres undefined) | 6.71 µM |
| COc1cc(N=Cc2c(CO)cnc(C)c2O)cc(OC)c1OC | 19.6 µM |
| CN1CCc2cc(O)cc3c2[C@H]1Cc1ccc(O)c(O)c1-3 | 15 µM |
| COc1cc(N)c2ncccc2c1OC | 16.6 µM |
| COC(=O)[C@H](CCSC)NC(=O)c1cc2c(cn1)[nH]c1ccccc12 | inactive |
| COc1cc(N2C(=O)C=CC2=O)ccc1N1C(=O)C=CC1=O | 4.43 µM |
| Clc1ccc2nc(-c3ccc(Br)s3)cn2c1 | 8.89 µM |
| CC(C)c1nnc(NC(=O)c2sc3ccccc3c2Cl)s1 | 6.44 µM |
| Cc1nnc(SCC(=O)c2cc(C)n(-c3ccc4c(c3)OCO4)c2C)s1 | 7.35 µM |
| CCNc1nc(NC(C)C)nc(NS(=O)(=O)c2ccc(Cl)cc2)n1 | 6.54 µM |
| CCn1c(SCC(=O)Nc2ccccc2OC)nnc1-c1cnccn1 | inactive |
| CCOc1ccccc1CNc1ccc(O)cc1 | 19.2 µM |
| CCN1/C(=C/C=C/C=C/C=C/c2sc3ccccc3[n+]2CC)Sc2ccccc21 | 7.54 µM |
| CCC(C)c1ccccc1OCCn1ccnc1 (centres undefined) | 3.39 µM |
| COc1cc(CN2CCN(CCCc3ccccc3)C(CCO)C2)cc(OC)c1O (centres undefined) | 7.68 µM |
| Cc1ccc(NC(=O)c2cc(N3C(=O)C=CC3=O)ccc2Cl)cc1C | 14.1 µM |
| O=C(CSc1nc2ccccc2[nH]1)NC1CCCc2ccccc21 (centres undefined) | 13.4 µM |

| SMILES | IC50 |
| --- | --- |
| CCC(C)N(CCNC(=O)c1ccc2c(c1)NC(=O)c1ccccc1S2)C1CCCCC1 (centres undefined) | 6.48 µM |
| COc1ccc(C(=O)Nc2nnc(S(=O)(=O)N3CCOCC3)s2)cc1 | 7 µM |
| COc1ccc(N2CSC3=C(C#N)C(c4cc(OC)c(OC)cc4OC)CC(=O)N3C2)c(OC)c1 (centres undefined) | 3.13 µM |
| c1ccc(SSc2ccccn2)nc1 | 9.82 µM |
| C(=N\Nc1nc2ccccc2[nH]1)/c1ccccn1 | 5.24 µM |
| CC(=O)Nc1ccc2sn(-c3ccccc3)c(=O)c2c1 | 2.53 µM |
| CCN(CC)c1ccc(C(=C2C=CC(=[N+](CC)CC)C=C2)c2ccc(N(CC)CC)cc2)cc1 | 10.3 µM |
| CCOC(=O)c1c2ccc(OCC(=O)NN)cc2n2ccccc12 | 15.3 µM |
| OCCN1CCN(C(=S)c2ccc(Cl)c(Cl)c2)CC1 | 12.5 µM |
| CCN(CC)c1ccc(C(=C2C=CC(=[N+](CC)CC)C=C2)c2ccccc2)cc1 | 11.7 µM |
| CCOc1ccccc1C=NNC(=O)CCCCC(=O)NN=Cc1ccccc1OCC | 7.77 µM |
| Cc1ccccc1-n1sc2cc(F)ccc2c1=O | 2.15 µM |
| O=C(Cn1sc2ccccc2c1=O)Nc1ccccc1 | 1.97 µM |
| CC(C)(C)c1ccc(C(=O)Nc2sc3c(c2C(=O)O)CCC3)cc1 | 12.7 µM |
| COCCn1nnnc1C(c1cc2cc(OC)c(OC)cc2[nH]c1=O)N1CCN(c2ccc(O)cc2)CC1 (centres undefined) | inactive |
| COc1ccc2nc3cc(Cl)ccc3c(Nc3ccc(O)c(CN4CCN(C)CC4)c3)c2c1 | inactive |
| CC(=O)Nc1cc([N+](=O)[O-])ccc1OCc1ccccc1 | 19.8 µM |
| CC(C)(C)c1ccc(O)c(O)c1 | inactive |
| O=C(O)C(Cc1ccccc1)N1C(=O)C=CC1=O (centres undefined) | 6.01 µM |
| Cc1ccc(-n2sc3cc(F)ccc3c2=O)c(C)c1 | 1.43 µM |
| CN1CCN(C(=O)c2sc(=S)n(-c3ccccc3)c2N)CC1 | 7.25 µM |
| COc1cc(C(=O)ON=C2C=C(C)C(=O)C(C)=C2)cc(OC)c1OC | 5.09 µM |
| Cc1ccc(S(=O)(=O)C=CS(=O)(=O)c2ccc(C)cc2)cc1 | 6.65 µM |

| SMILES | IC50 |
| --- | --- |
| Nc1cc(N)c(OCC(F)(F)F)cc1OCC(F)(F)F | 1.61 µM |
| COc1ccc(C(=O)c2c(C(F)(F)F)oc3c2C(=O)c2ccccc2C3=O)cc1 | inactive |
| CCOc1cc(NCc2ccccc2)c2ncn(C(C)C)c2c1 | > 80 µM (inactive) |
| O=C1C=CC(=O)N1c1ccc2c(c1)C(NC(=O)C(F)(F)F)c1ccccc1-2 (centres undefined) | 9.14 µM |
| Cc1no[n+]([O-])c1COc1cccc(/C=N/Nc2nncn2N)c1 | 6.7 µM |
| O=[N+]([O-])c1cnc(Sc2ccncn2)c([N+](=O)[O-])c1 | 9.62 µM |
| CCCCCCCCSC1=CC(=O)C(OC)=C(OC)C1=O | 1.71 µM |
| CCc1nnc(NC(=O)c2ccc(Cl)nc2)s1 | 15.5 µM |
| c1ccc(-c2nc(N3CCOCC3)s[n+]2-c2ccccc2)cc1 | 3.97 µM |
| Cc1ccc(/C=C/C(=O)NCC2COc3ccccc3O2)o1 (centres undefined) | 3.66 µM |
| O=C(Nc1nnc(S(=O)(=O)N2CCCCC2)s1)c1cccc(Br)c1 | 6.37 µM |
| CCN1CCCC1CNC(=O)c1ccc2c(c1)NC(=O)/C(=C\c1ccc(C)cc1)S2 (centres undefined) | 3.16 µM |
| O=c1c2cc(F)ccc2sn1-c1ccc(F)cc1 | 2.22 µM |
| O=C(Cn1sc2ccccc2c1=O)NC12CC3CC(CC(C3)C1)C2 | 1.79 µM |
| O=C(CSc1nc2cc(Cl)ccc2s1)c1ccco1 | 6.04 µM |
| CCn1c(SCc2nc3scc(-c4ccccc4)c3c(=O)[nH]2)nnc1-c1cccs1 | 17.3 µM |
| O=c1c2ccccc2sn1-c1cc(S(=O)(=O)N2CCOCC2)ccc1N1CCCC1 | 1.08 µM |
| COc1ccc(OC)c2c1C(=O)C(Cl)=C(Cl)C2=O | 4.64 µM |
| CCN(CC)c1ccc(NC(=O)c2ccccc2Br)cc1S(=O)(=O)Nc1ccccc1OC | inactive |
| COc1ccc(S(=O)(=O)/N=C2\C=C(Nc3ccc(O)cc3)C(=O)c3ccccc32)cc1 | inactive |
| COc1ccc(C(=O)ON=C2C=C(C)C(=O)C(C)=C2)cc1 | inactive |
| O=C(CCc1ccc(S(=O)(=O)N2CCOCC2)cc1)N/N=C/c1ccc(O)c(O)c1O | 5.82 µM |
| Cc1cc(O)c(C(C)C)cc1N=Cc1ccccc1[N+](=O)[O-] | 3.44 µM |

| SMILES | IC50 |
| --- | --- |
| O=C(CNC(=O)c1cccs1)NCC(=O)OCC(=O)c1ccc([N+](=O)[O-])cc1 | 16.7 µM |
| O=[N+]([O-])c1ccc(-[n+]2ccc3ccccc3c2)c([N+](=O)[O-])c1 | 8.26 µM |
| CN(C)c1ccc(C=c2c3cc([N+](=O)[O-])ccc3n3c2cc(-c2ccccc2)[n+]3C)cc1 | 8.44 µM |
| NNC(=O)CN1C(c2ccccc2Br)=Nc2ccc(Br)cc2C1c1ccccc1 (centres undefined) | 3.38 µM |
| COc1ccccc1NS(=O)(=O)c1cc(NC(=O)c2ccc(Cl)nc2)ccc1N1CCCC1 | inactive |
| COc1ccc(CCn2c(NN=C(C)C)nc3c2c(=O)[nH]c(=O)n3C)cc1 | 4.82 µM |
| CC(=O)Nc1ccc2c(=O)n(-c3ccccc3)sc2c1 | 8.52 µM |
| COC1=C(OC)C(=O)C(Sc2ccc3ccccc3c2)=CC1=O | 0.781 µM |
| COC1=C(N)C(=O)c2nc(C)ccc2C1=O | 6.3 µM |
| Cc1nc2ccc(Nc3nc4cc(S(=O)(=O)N5CCOCC5)ccc4o3)cc2s1 | inactive |
| CN(C)c1cccc2c1c(NC(=O)c1ccc(F)cc1)nn2C | 19.2 µM |
| [O-][N+](=Cc1ccccc1)c1ccc(Cl)cc1 | 3.34 µM |
| CC(=O)Nc1cc2c(cc1[N+](=O)[O-])-c1ccccc1C2O (centres undefined) | 20 µM |
| O=C1CCN(c2ccccc2)N1 | 1.34 µM |
| Cc1ccc(/C=C2\C(=O)NC(=S)N(c3ccccc3F)C2=O)s1 | inactive |
| COc1cccc(-c2c(C(=O)N/N=C/c3ccc(C)o3)nnn2-c2nonc2N)c1 | 13.2 µM |
| CCCCOc1ccc(Cc2n[nH]c(=S)n2N)cc1 | inactive |
| Cc1ccc(/C=C/C(=O)NC2CCCCCCC2)o1 | 9.66 µM |
| COc1ccc(C(=O)c2c(C(F)(F)F)oc3c2C(=O)c2ccccc2C3=O)cc1OC | inactive |
| C=CCN=c1scc(-c2ccco2)n1/N=C/c1ccc(O)c(O)c1O | inactive |
| O=C(COc1ccccc1F)OCC(=O)c1ccc([N+](=O)[O-])cc1 | 12.4 µM |
| O=S(c1ccccc1O)S(=O)c1ccccc1O (centres undefined) | 4.89 µM |
| Cc1ccc(NC(=O)c2ccc(Cl)c(N3C(=O)C=CC3=O)c2)cc1 | 7.52 µM |

| SMILES | IC50 |
| --- | --- |
| Cc1ccc(NC(=O)c2cc(N3C(=O)C=CC3=O)ccc2N2CCOCC2)cc1 | 15.7 µM |
| CCOc1ccccc1NC(=O)CCCc1nc2ccccc2c(=O)[nH]1 | 7.4 µM |
| COc1ccc(CNC(=O)Cc2cn(C)c3ccccc23)c(OC)c1 | 6.8 µM |
| CCN1CCN(C(=S)c2ccc(Cl)c(Cl)c2)CC1 | inactive |
| CCc1ccc(S(=O)(=O)Nc2cc(SCC(=O)O)c(O)c3ccccc23)cc1 | 5.63 µM |
| COC1=CC(=O)C=C(OC)C1(O)CC(C)=O | 5.91 µM |
| N#Cc1ccc(N=c2ssnc2Cl)cc1 | 13.8 µM |
| COc1ccc(-c2cn3cc(C)ccc3n2)cc1Br | 9.91 µM |
| Cc1ccc(-c2nn(C)c(=O)c3ccccc23)cc1CNC(=O)/C=C/c1ccccc1 | 4.14 µM |
| O=C(Nc1nnc(S(=O)(=O)N2CCOCC2)s1)c1cccc(Br)c1 | 5.58 µM |
| O=C1OC(c2ccc3ccccc3c2O)(c2ccc3ccccc3c2O)c2ccccc21 | 14.5 µM |
| CC(C)Cn1c([N+](=O)[O-])nc2c1c(=O)[nH]c(=O)n2C | 14.3 µM |
| Nc1ccc2c3c(cccc13)-c1ccccc1-2 | inactive |
| C=C1C(=O)O[C@@H]2C[C@@H](C)[C@@H]3C=CC(=O)[C@@]3(C)[C@@H](OC(=O)CC(=O)O[C@H]3[C@@H]4C(=C)C(=O)O[C@@H]4C[C@@H](C)[C@@H]4C=CC(=O)[C@]43C)[C@H]12 | 13.3 µM |
| Nn1c(SCC(=O)Nc2cccnc2Cl)nnc1-c1ccccc1 | inactive |
| Cc1ccc(/C=C/C(=O)NCc2ccc(S(N)(=O)=O)cc2)o1 | 5.78 µM |
| O=c1[nH]c2ccc(NCc3ccccc3OCc3ccc(Cl)cc3)cc2[nH]1 | > 80 µM (inactive) |
| CC1(OC(=O)C2CCCC2)C(=O)C=C2C=C(c3ccsc3)N(Cc3ccc4c(c3)OCO4)C=C2C1=O (centres undefined) | 11.1 µM |
| COc1ccc(NS(=O)(=O)c2ccc(N3CCCC3)c(NC(=S)Nc3cccc(C)c3C)c2)cc1 | inactive |
| Cc1ccc(/C=C/C(=O)NCCc2cccc(Cl)c2)o1 | 7.59 µM |
| O=C(Nc1ccc([N+](=O)[O-])cc1Cl)c1cc(Cl)ccc1O | 13.7 µM |
| COc1ccc(NC2CCCN(Cc3cccc4cnccc34)C2)cc1OC (centres undefined) | inactive |
